The results in this text go back to ChEMBL document CHEMBL2150982, “Synthesis and SAR of 1-hydroxy-1H-benzo[d]imidazol-2(3H)-ones as Inhibitors of D-Amino Acid Oxidase” (ACS Med Chem Lett, 2012).

For data set [1], the target named is D-amino-acid oxidase (Homo sapiens, UniProt P14920). Description: Inhibition of human recombinant DAAO expressed in HEK293 cells using D-serine as substrate after 20 mins by horseradish peroxidase-coupled assay.
Data set [2] concerns the target D-amino-acid oxidase (Sus scrofa, UniProt P00371). Description: Inhibition of pig DAAO using D-serine as substrate after 20 mins by horseradish peroxidase-coupled assay.
Data set [3] deals with Mus musculus. Put plainly: Pharmaco-enhancing activity in CD1 mouse assessed as increase in D-serine level in plasma at 30 mg/kg, po measured up to 2 hrs relative to control. Further details: dose 30 mg/kg, route oral; call rule not given here. To be noted: in vivo. The class given is ADME, organism-based.
The nature of data set [4]: (§1) Metabolic stability in mouse plasma assessed as compound remaining at 5 uM after 1 hr by LC/MS/MS analysis. The data set is classed as ADME, cell-free. To be noted: read-out: Stability.
Data set [5] can be described thus: Metabolic stability in mouse liver microsomes assessed as compound remaining at 5 uM after 1 hr by LC/MS/MS analysis. To be noted: read-out: Stability. The class given is ADME, Microsome.
A short description of data set [6]: (§2) Metabolic stability in mouse liver microsomes assessed as compound remaining at 5 uM after 1 hr by LC/MS/MS analysis in presence of NADPH. The data set is classed as ADME, Microsome. To be noted: liver microsomes, read-out: Stability.
The subject of data set [7] is Liver. Description: Metabolic stability in mouse liver microsomes assessed as compound remaining at 5 uM after 1 hr by LC/MS/MS analysis in presence of UDPGA. The class given is ADME, Microsome.
Data set [8] deals with Mus musculus. Description: Pharmaco-enhancing activity in CD1 mouse assessed as increase in D-serine level in plasma at 30 mg/kg, po measured at 30 mins relative to control. The data set is classed as ADME, organism-based. Further details: dose 30 mg/kg, route oral. To be noted: in vivo, 0.5 h.
The subject of data set [9] is Mus musculus. Put plainly: Pharmaco-enhancing activity in CD1 mouse assessed as increase in D-serine level in plasma at 30 mg/kg, po relative to control. The data set is classed as ADME, organism-based. Further details: dose 30 mg/kg, route oral. To be noted: in vivo.
The next data set relates to Plasma. Described as §1. The data set is classed as ADME, cell-free. To be noted: 1 h, 5 µM.
Data set [10] relates to Liver. Described as §2. The data set is classed as ADME, Microsome. To be noted: microsomes, 1 h, 5 µM.

Chain of D-amino-acid oxidase (Homo sapiens, UniProt P14920) (P14920 whole entry): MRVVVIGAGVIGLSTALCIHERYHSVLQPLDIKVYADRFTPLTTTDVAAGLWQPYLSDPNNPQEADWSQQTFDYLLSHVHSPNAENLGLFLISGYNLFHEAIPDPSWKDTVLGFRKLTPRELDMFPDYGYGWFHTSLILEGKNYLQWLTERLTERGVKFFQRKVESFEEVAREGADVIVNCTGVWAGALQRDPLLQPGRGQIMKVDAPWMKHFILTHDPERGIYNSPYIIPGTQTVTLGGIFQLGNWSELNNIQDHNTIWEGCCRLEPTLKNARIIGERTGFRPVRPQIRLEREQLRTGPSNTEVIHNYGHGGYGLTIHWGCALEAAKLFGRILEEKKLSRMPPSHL
Chain of D-amino-acid oxidase (Sus scrofa, UniProt P00371) (P00371 whole entry): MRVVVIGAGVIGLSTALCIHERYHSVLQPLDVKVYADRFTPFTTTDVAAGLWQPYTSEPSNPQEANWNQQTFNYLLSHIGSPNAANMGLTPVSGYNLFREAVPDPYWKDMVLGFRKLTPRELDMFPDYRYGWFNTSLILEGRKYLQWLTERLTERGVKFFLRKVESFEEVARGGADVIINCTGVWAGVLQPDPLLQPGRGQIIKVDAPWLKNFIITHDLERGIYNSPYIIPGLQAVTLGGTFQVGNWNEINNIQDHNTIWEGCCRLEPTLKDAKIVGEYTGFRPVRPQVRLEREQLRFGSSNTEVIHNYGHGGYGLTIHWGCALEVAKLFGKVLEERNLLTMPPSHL

The term IC50 denotes the midpoint of a concentration-inhibition curve. Turning to `COn1c(=O)[nH]c2ccccc21`, the IC50 on D-amino-acid oxidase [1] was more than 100 µM.

On to `O=c1[nH]c2c(F)cc(F)cc2n1O`, for which the IC50 came to 0.08 µM at D-amino-acid oxidase [1] and 0.4 µM against D-amino-acid oxidase [2]. Besides, the outcome with Mus musculus [3] and with Mus musculus [8] was Active. Also, the remaining at 1 h, 5 µM in data set [4], in data set [5] and in data set [6] was 100% each time. Further, the Stability in the data set with Liver [7] was 0.6%.

Turning to `O=c1[nH]c2ccc(F)cc2n1O`, the IC50 on D-amino-acid oxidase [1] was 0.4 µM; at D-amino-acid oxidase [2], 0.6 µM.

`O=c1[nH]c2ccccc2n1O`: the IC50 is 0.6 µM at D-amino-acid oxidase [1] and 1 µM against D-amino-acid oxidase [2].

On to `Cc1cccc2[nH]c(=O)n(O)c12`, for which the IC50 on D-amino-acid oxidase [1] is 40 µM; at D-amino-acid oxidase [2], more than 100 µM.

For `O=C1Cc2ccccc2N1O`, the IC50 on D-amino-acid oxidase [1] is more than 100 µM.

As to `O=c1[nH]c2ncccc2n1O`, at D-amino-acid oxidase [1], the IC50 is 1 µM.

For the compound `Cn1c(=O)n(O)c2ccccc21`, the IC50 at D-amino-acid oxidase [1] is more than 100 µM.

Regarding `O=c1[nH]c2cccnc2n1O`, at D-amino-acid oxidase [1], the IC50 was found to be 30 µM.

For `Cc1cc2[nH]c(=O)n(O)c2cc1F`, the results for the IC50 on D-amino-acid oxidase [1] and on D-amino-acid oxidase [2] were 2 µM and 1 µM, respectively.

`Cc1cccc2c1[nH]c(=O)n2O`: the concentration for half-maximal inhibition (IC50) on D-amino-acid oxidase [1] was 0.2 µM; against D-amino-acid oxidase [2] it was 0.4 µM.

With `O=c1[nH]c2cc(F)ccc2n1O`, the IC50 at D-amino-acid oxidase [1] worked out at 0.9 µM; on D-amino-acid oxidase [2], 1 µM.

In the case of `Cc1ccc2c(c1)[nH]c(=O)n2O`, the concentration for half-maximal inhibition (IC50) on D-amino-acid oxidase [1] and against D-amino-acid oxidase [2] was 4 µM each time.

As to `O=c1[nH]c2ccc(Cl)cc2n1O`, the figures for the concentration for half-maximal inhibition (IC50) on D-amino-acid oxidase [1] and on D-amino-acid oxidase [2] were 9 µM and 2 µM, respectively.

In the case of `O=c1[nH]c2ccncc2n1O`, the IC50 at D-amino-acid oxidase [1] amounted to 70 µM.

On to `Cc1ccc2c([nH]c(=O)n2O)c1C`, for which the concentration for half-maximal inhibition (IC50) at D-amino-acid oxidase [1] worked out at 20 µM; against D-amino-acid oxidase [2], 1 µM.

Consider `O=c1[nH]c2ccc(F)c(F)c2n1O`, for which the IC50 on D-amino-acid oxidase [1] came to 8 µM; on D-amino-acid oxidase [2], 20 µM.

Take `O=c1[nH]c2c(F)cccc2n1O`: the IC50 is 0.1 µM on D-amino-acid oxidase [1] and 0.5 µM against D-amino-acid oxidase [2].

For `Cc1c(F)ccc2[nH]c(=O)n(O)c12`, the 50% inhibitory concentration (IC50) at D-amino-acid oxidase [1] and on D-amino-acid oxidase [2] was more than 100 µM each time.

As to `Oc1nc2ccccc2[nH]1`, at D-amino-acid oxidase [1], the concentration for half-maximal inhibition (IC50) is more than 100 µM.

Regarding `Nn1c(=O)[nH]c2ccccc21`, at D-amino-acid oxidase [1], the half-maximal inhibitory concentration (IC50) is more than 100 µM.

Turning to `O=c1[nH]c2c3c(ccc2n1O)CCO3`, the results for the IC50 on D-amino-acid oxidase [1] and against D-amino-acid oxidase [2] were 0.8 µM and 0.2 µM, respectively.

`Cc1ccc2[nH]c(=O)n(O)c2c1`: the values for the 50% inhibitory concentration (IC50) at D-amino-acid oxidase [1] and against D-amino-acid oxidase [2] were 30 µM and 7 µM, respectively.

Turning to `Cc1c(F)ccc2c1[nH]c(=O)n2O`, the IC50 at D-amino-acid oxidase [1] was found to be 0.07 µM; on D-amino-acid oxidase [2], 0.7 µM.

In the case of `O=c1[nH]c2cc(F)c(F)cc2n1O`, the figures for the IC50 at D-amino-acid oxidase [1] and at D-amino-acid oxidase [2] were 70 µM and 30 µM, respectively.

For the compound `CCOc1cccc2c1[nH]c(=O)n2O`, the half-maximal inhibitory concentration (IC50) on D-amino-acid oxidase [1] and on D-amino-acid oxidase [2] was 50 µM throughout.

For `O=c1[nH]c2c(Cc3ccccc3)cccc2n1O`, the half-inhibitory concentration (IC50) worked out at 10 µM at D-amino-acid oxidase [1] and 50 µM on D-amino-acid oxidase [2].

For `CCc1cccc2c1[nH]c(=O)n2O`, the values for the IC50 at D-amino-acid oxidase [1] and against D-amino-acid oxidase [2] were 80 µM and 20 µM, respectively.

As for `Cc1cc(C)c2[nH]c(=O)n(O)c2c1`, the IC50 on D-amino-acid oxidase [1] was found to be 20 µM; at D-amino-acid oxidase [2], 4 µM.

With `COc1cccc2c1[nH]c(=O)n2O`, the half-inhibitory concentration (IC50) is 0.1 µM on D-amino-acid oxidase [1] and 0.4 µM against D-amino-acid oxidase [2]. Also, in the data set on Mus musculus [9], the Activity entry is “Not Active”. For the same compound, the Stability is 90% with Plasma, 60% with Liver [10] and “Unstable” in the data set on Liver [7]. Further, the remaining at 1 h, 5 µM in data set [5] came to 100%.

As to `O=C1Nc2ccccc2C1O` (stereo unspecified), at D-amino-acid oxidase [1], the 50% inhibitory concentration (IC50) is more than 100 µM.

Consider `CC(C)c1cccc2c1[nH]c(=O)n2O`, for which the half-inhibitory concentration (IC50) on D-amino-acid oxidase [1] worked out at 20 µM; on D-amino-acid oxidase [2], 10 µM.

Regarding `CCC(C)c1cccc2c1[nH]c(=O)n2O` (stereo unspecified), the half-inhibitory concentration (IC50) at D-amino-acid oxidase [1] was more than 100 µM; on D-amino-acid oxidase [2], 40 µM.

On to `O=c1[nH]c2cc3c(cc2n1O)CCC3`, for which the results for the IC50 on D-amino-acid oxidase [1] and on D-amino-acid oxidase [2] were 30 µM and 10 µM, respectively.

With `CCCc1cccc2c1[nH]c(=O)n2O`, the IC50 on D-amino-acid oxidase [1] turned out to be 20 µM; at D-amino-acid oxidase [2], 30 µM.

For `O=c1[nH]c2ccc3c(c2n1O)CCC3`, the IC50 at D-amino-acid oxidase [1] and against D-amino-acid oxidase [2] was more than 100 µM throughout.

Turning to `O=c1[nH]c2cccc(F)c2n1O`, the IC50 at D-amino-acid oxidase [1] was 3 µM; against D-amino-acid oxidase [2], 20 µM.
